Columns and labels:
[1] = molecular target: BK currents, cloned α-hSlo and β-bSlo in CHO cells (Homo sapiens, UniProt Q12791); experiment: Electrophysiological studies (whole-cell patch-clamp, BK currents); format: cell-based; conditions: ratio of current increase after application of compound (20 μM) relative to control current before application, steady-state
Experimental: CHO cells permanently transfected with cloned α-hSlo and β-bSlo were maintained as described above and used for electrophysiologial characterisation. The whole-cell configuration of the patch-clamp technique was used to determine the effect of modulators on BK currents in these cells. The cell line expressing functional BK currents (Zhou et al., Pflügers Arch 436, p.725 (1998)) were plated onto glass cover slips with a density of 1-5×10^4 cells/cover slip, incubated (37° C., 5% CO2) and used for patch-clamp experiments within 24-48 h. Cells were bathed in mammalian ringer solutions containing (in mM): 160 NaCl, 4.5 KCl, 2CaCl2, 1 MgCl2, 10 HEPES, adjusted to pH 7.4, 290-310 mOsim. The internal pipette solution contained (in mM): 160 KCl, 2CaCl2, 1 MgCl2, 10 HEPES, EGTA was added to reach a free [Ca^2+]internal=1×10 ^−6M, adjusted to pH 7.2, 290-310 mOsm.
Borosilicate pipettes with a resistance of 2-3 MΩ were filled with the internal solution and mounted on an appropriate holder. Prior to measurements a recording chamber was mounted onto the cell-plated cover slips and the cells were perfused with a simple syringe driven perfusion system. Compounds were added in the final concentration ([…]) to the bath solution using the same system. An EPC-9 patch-clamp amplifier with Pulse and PulseFit software (HEKA) was used to record and analyze currents.
After addition of the compounds to the bath solution their modulating effect was determined by the increase or decrease of specific BK currents after reaching steady-state relative to the BK current before application of drugs (see Table II).

[2] = molecular target: BK channels, cloned hSlo (α-hSlo and β-bSlo) in CHO cells (Homo sapiens, UniProt Q12791); experiment: Em-Assay (voltage sensitive dye DiBAC(4)3 fluorescence, membrane potential); format: cell-based; conditions: ratio of the compound effect (50 μM) compared to the maximal effect of NS004 (25 or 50 μM); hSlo transfected CHO cells
From the text: The large conductance, voltage dependent and Ca^2+-activated potassium channel BK is a potassium selective ion channel and belongs to the subfamily of KCa channels. Four BK alpha-subunits form a functional channel that can be regulated by intracellular Ca^2+ concentration, membrane voltage, and other mechanisms like phosphorylation states or beta subunits. To test the biological activity of the compounds, we applied two different techniques, a fluorescence based assay using a voltage sensitive dye (Em-Assay) as well as exploiting electrophysiological methods.
CHO cells permanently transfected with cloned hSlo (α-hSlo and β-bSlo), yielding typical BK potassium currents (Zhou et al., Pflügers Arch., 436: 725-734 (1998), were used for the evaluation of compound activity. Activation or inhibition of BK channels in these cells leads to a change of the electrochemical gradient causing a hyperpolarized or depolarised membrane potential, respectively.
To determine changes in the membrane potential of the cells we used the voltage sensitive dye DiBAC(4)3 (Molecular Probes) in a kinetic assay system using a fluorescent plate reader (Manning and Sontheimer, J. Neurosci. Meth., 91: 73-81 (1999). The anionic bis-oxonol DiBAC(4)3 is a voltage sensitive dye which partitions from the extracellular environment into the cell where it reversibly binds to intracellular proteins, a kinetic process depending on the membrane potential of the cell. At depolarised potentials (i.e. at a reduced K^+ efflux due to blocked K^+ channels) the dye accumulates in the cell leading to an increased fluorescence intensity, due to its increased fluorescence if bound to cellular proteins. At hyperpolarized potentials (i.e. at an increased K^+ efflux due to the opening of K^+ channels), the dye partitions out of the cell causing a decreased fluorescence intensity.
hSlo transfected CHO cells where maintained in DMEM supplemented with 10% FCS, 250 μg/ml Geneticin, 100 μg/ml Hygromycin, 1×HT-Supplement, and 1×Non-essential Amino Acids and cultured in a humidified CO2 incubator. After trypsination, cells where plated with a density of 5×10^4 cells per well on a clear 96-well plate and incubated for 24 h. Cells where washed once with PBS, once with PBS containing 20 mM HEPES (adjusted to pH 7.4 with NaOH) and 2 μM DiBAC(4)3 (DPBS-DiMAC solution). 180 μl of the dPBS-DiBAC solution was then added to the cells and the plate incubated for 30-60 min at 37° C. During this time the dye could partition into the cells and reach a certain steady-state distribution, depending on the resting membrane potential. Test and reference compounds were stored as DMSO stock solutions and diluted in dPBS-DiBAC solution to the desired concentration.
Fluorescence intensity (Ex.: 485 nm/Em: 520 nm) of each well was detected in the plate reader (Fluostar, BMG) every 60 seconds. After recording the baseline fluorescence for 7 minutes, 20 μl test and reference compounds were added and the fluorescence intensity was detected for additional 15 minutes. Background was subtracted, data values were normalized and expressed as a change in fluorescence intensity against time. The change in fluorescence intensity caused by the test compounds was evaluated compared to the effect of the reference compound NS004, and the ratio was determined (see Table I).

Chain of BK currents, cloned α-hSlo and β-bSlo in CHO cells (Q12791 whole entry): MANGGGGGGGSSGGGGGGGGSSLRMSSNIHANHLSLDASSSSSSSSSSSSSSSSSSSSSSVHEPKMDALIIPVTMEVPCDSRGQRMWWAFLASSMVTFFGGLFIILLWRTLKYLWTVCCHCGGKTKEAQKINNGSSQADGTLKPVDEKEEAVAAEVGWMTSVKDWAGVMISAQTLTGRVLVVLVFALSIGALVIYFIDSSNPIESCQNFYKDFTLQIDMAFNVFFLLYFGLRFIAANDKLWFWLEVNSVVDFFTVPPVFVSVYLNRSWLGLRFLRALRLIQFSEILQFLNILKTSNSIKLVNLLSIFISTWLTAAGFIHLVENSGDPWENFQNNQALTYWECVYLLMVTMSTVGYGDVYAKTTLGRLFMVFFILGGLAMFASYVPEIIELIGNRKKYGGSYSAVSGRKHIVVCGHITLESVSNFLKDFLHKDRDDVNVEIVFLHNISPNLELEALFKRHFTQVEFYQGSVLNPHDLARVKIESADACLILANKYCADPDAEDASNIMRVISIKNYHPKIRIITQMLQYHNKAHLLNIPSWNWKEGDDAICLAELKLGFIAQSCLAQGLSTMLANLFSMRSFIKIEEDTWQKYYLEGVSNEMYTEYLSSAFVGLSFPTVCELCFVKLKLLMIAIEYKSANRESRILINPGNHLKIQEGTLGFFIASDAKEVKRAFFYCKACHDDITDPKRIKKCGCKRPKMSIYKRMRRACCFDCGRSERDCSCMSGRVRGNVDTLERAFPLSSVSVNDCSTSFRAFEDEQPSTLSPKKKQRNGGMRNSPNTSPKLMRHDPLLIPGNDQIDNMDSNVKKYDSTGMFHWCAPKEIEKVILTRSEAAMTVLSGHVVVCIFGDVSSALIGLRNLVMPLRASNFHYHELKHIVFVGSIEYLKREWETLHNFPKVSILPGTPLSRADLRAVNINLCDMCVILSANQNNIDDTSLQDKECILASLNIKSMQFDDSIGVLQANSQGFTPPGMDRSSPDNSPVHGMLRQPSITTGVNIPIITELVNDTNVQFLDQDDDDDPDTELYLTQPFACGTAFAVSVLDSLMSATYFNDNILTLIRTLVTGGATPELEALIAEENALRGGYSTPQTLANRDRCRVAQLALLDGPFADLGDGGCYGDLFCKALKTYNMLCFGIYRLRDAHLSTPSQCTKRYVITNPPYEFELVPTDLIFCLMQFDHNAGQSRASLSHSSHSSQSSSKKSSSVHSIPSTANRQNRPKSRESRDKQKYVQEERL
Chain of BK currents, cloned α-hSlo and β-bSlo in CHO cells (Q28067 whole entry partner): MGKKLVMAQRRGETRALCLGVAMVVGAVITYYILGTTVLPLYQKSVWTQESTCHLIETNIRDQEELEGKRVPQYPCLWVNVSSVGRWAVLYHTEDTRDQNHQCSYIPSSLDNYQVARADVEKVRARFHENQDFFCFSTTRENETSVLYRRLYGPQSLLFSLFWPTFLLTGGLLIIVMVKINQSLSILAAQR
Chain of BK channels, cloned hSlo (α-hSlo and β-bSlo) in CHO cells (Q12791 whole entry): as the sequence (Q12791 whole entry) above
Chain of BK channels, cloned hSlo (α-hSlo and β-bSlo) in CHO cells (Q28067 whole entry partner): as the sequence (Q28067 whole entry partner) above

Structure (SMILES) | Effect (ratio of current increase) [1] | Em effect [2]
Fc1ccc(-c2ccc3[nH]ccc3c2)c(F)c1 [Compound 3] | +++ (>1.2=+++) | ++ (>1=++)
Fc1cc(-c2cccc3[nH]ccc23)ccc1-c1ccccc1 [Compound 21] |  | + (0-1=+)
COc1ccc(-c2ccc3[nH]ccc3c2)c(OC)c1 [Compound 48] |  | ++ (>1=++)
COc1ccccc1-c1ccc2cc[nH]c2c1 [Compound 19] |  | + (0-1=+)
CC(C)(C)c1ccc(-c2ccc3[nH]ccc3c2)cc1 [Compound 32] |  | + (0-1=+)
c1ccc(COc2ccc(-c3cccc4[nH]ccc34)cc2)cc1 [Compound 36] |  | + (0-1=+)
Clc1ccc(-c2ccc3[nH]ccc3c2)cc1 [Compound 46] |  | ++ (>1=++)
FC(F)(F)Oc1cccc(-c2cccc3cc[nH]c23)c1 [Compound 38] |  | + (0-1=+)
COc1ccccc1-c1cccc2cc[nH]c12 [Compound 7] |  | + (0-1=+)
Clc1ccc(-c2ccc3cc[nH]c3c2)cc1 [Compound 58] |  | + (0-1=+)
Clc1ccc(-c2ccc3cc[nH]c3c2)s1 [Compound 13] |  | + (0-1=+)
CC(C)(C)c1ccc(-c2cccc3[nH]ccc23)cc1 [Compound 39] |  | ++ (>1=++)
Fc1cccc(-c2ccc3cc[nH]c3c2)c1 [Compound 37] |  | + (0-1=+)
CN(C)c1ccc(-c2ccc3[nH]ccc3c2)cc1 [Compound 2] | + (1-1.1=+) | + (0-1=+)
CC(C)(C)c1ccc(-c2ccc3cc[nH]c3c2)cc1 [Compound 62] |  | + (0-1=+)
Clc1ccccc1-c1ccc2[nH]ccc2c1 [Compound 30] | + (1-1.1=+) | ++ (>1=++)
FC(F)(F)c1ccc(-c2ccc3cc[nH]c3c2)cc1 [Compound 14] |  | + (0-1=+)
Fc1ccc(-c2cccc3[nH]ccc23)c(F)c1 [Compound 55] |  | + (0-1=+)
Clc1ccccc1-c1cccc2cc[nH]c12 [Compound 9] |  | + (0-1=+)

Structure (SMILES) | Effect (ratio of current increase) [1] | Em effect [2]
Clc1ccc(-c2cccc3cc[nH]c23)s1 [Compound 6] |  | + (0-1=+)
Clc1ccccc1-c1cccc2[nH]ccc12 [Compound 26] |  | + (0-1=+)
O=Cc1ccccc1-c1ccc2[nH]ccc2c1 [Compound 31] |  | + (0-1=+)
c1cc(-c2ccc3[nH]ccc3c2)c2cc[nH]c2c1 [Compound 47] |  | + (0-1=+)
COc1ccc(-c2ccc3cc[nH]c3c2)cn1 [Compound 35] |  | + (0-1=+)
Fc1ccc(-c2ccc3cc[nH]c3c2)c(F)c1 [Compound 16] |  | + (0-1=+)
c1ccc(-c2ccc3[nH]ccc3c2)nc1 [Compound 52] |  | + (0-1=+)
Clc1ccccc1-c1ccc2cc[nH]c2c1 [Compound 15] |  | + (0-1=+)
COc1ccc(-c2ccc3[nH]ccc3c2)cc1 [Compound 54] |  | ++ (>1=++)
COc1c(C)cc(-c2ccc3[nH]ccc3c2)cc1C [Compound 51] |  | ++ (>1=++)
c1ccc(-c2ccc3[nH]ccc3c2)cc1 [Compound 59] |  | + (0-1=+)
FC(F)(F)c1ccc(-c2ccc3[nH]ccc3c2)cc1 [Compound 4] | ++ (>1,1-1.2=++) | ++ (>1=++)
Clc1ccc(-c2cccc3[nH]ccc23)s1 [Compound 22] | ++ (>1,1-1.2=++) | + (0-1=+)
c1cc(-c2ccsc2)c2cc[nH]c2c1 [Compound 23] |  | + (0-1=+)
O=[N+]([O-])c1ccccc1-c1ccc2[nH]ccc2c1 [Compound 33] |  | + (0-1=+)
CS(=O)(=O)c1ccc(-c2ccc3[nH]ccc3c2)cc1 [Compound 29] |  | + (0-1=+)
c1cc2cc(-c3ccc4c(c3)OCO4)ccc2[nH]1 [Compound 50] |  | ++ (>1=++)
c1ccc(Oc2ccc(-c3cccc4[nH]ccc34)cc2)cc1 [Compound 57] |  | + (0-1=+)
COc1cccc(-c2cccc3[nH]ccc23)c1 [Compound 56] |  | + (0-1=+)

Structure (SMILES) | Effect (ratio of current increase) [1] | Em effect [2]
CN(C)c1ccc(-c2cccc3cc[nH]c23)cc1 [Compound 11] |  | ++ (>1=++)
COc1ccc(-c2cccc3[nH]ccc23)cc1 [Compound 42] |  | + (0-1=+)
c1ccc2c(-c3ccc4[nH]ccc4c3)cccc2c1 [Compound 44] |  | ++ (>1=++)
FC(F)(F)Oc1ccc(-c2cccc3[nH]ccc23)cc1 [Compound 28] |  | + (0-1=+)
COc1ccccc1-c1cccc2[nH]ccc12 [Compound 24] |  | + (0-1=+)
c1ccc(-c2cccc(-c3ccc4cc[nH]c4c3)c2)cc1 [Compound 60] |  | + (0-1=+)
FC(F)(F)c1ccc(-c2cccc3[nH]ccc23)cc1 [Compound 25] |  | + (0-1=+)
c1cc2cc(-c3ccc4[nH]ccc4c3)ccc2[nH]1 [Compound 43] |  | + (0-1=+)
FC(F)(F)c1ccc(-c2cccc3cc[nH]c23)cc1 [Compound 8] |  | + (0-1=+)
Fc1ccc(-c2cccc3cc[nH]c23)c(F)c1 [Compound 10] |  | + (0-1=+)
FC(F)(F)c1cc(-c2cccc3[nH]ccc23)cc(C(F)(F)F)c1 [Compound 20] |  | + (0-1=+)
c1cc2cc(-c3ccc4cc[nH]c4c3)ccc2[nH]1 [Compound 53] |  | ++ (>1=++)
FC(F)(F)Oc1cccc(-c2ccc3[nH]ccc3c2)c1 [Compound 34] |  | + (0-1=+)
FC(F)(F)Oc1ccc(-c2ccc3[nH]ccc3c2)cc1 [Compound 1] | ++ (>1,1-1.2=++) | ++ (>1=++)
CC(=O)c1cccc(-c2ccc3[nH]ccc3c2)c1 [Compound 49] |  | + (0-1=+)
COc1ccccc1-c1ccc2[nH]ccc2c1 [Compound 5] | ++ (>1,1-1.2=++) | ++ (>1=++)
FC(F)(F)c1cc(-c2ccc3cc[nH]c3c2)cc(C(F)(F)F)c1 [Compound 61] |  | + (0-1=+)
CN(C)c1ccc(-c2ccc3cc[nH]c3c2)cc1 [Compound 17] |  | ++ (>1=++)

Reference: US20030203959A1, “Novel modulators of potassium channels” (4SC AG, priority 2002, published 2003)
